Like-named read-outs stand apart in the source and are kept apart here.
What was measured:
differentiated L6 cells [1] = experiment: Fatty acid (palmitate) oxidation assay with differentiated rat L6 muscle cells;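 also: differentiated rat L6 myotubes fed [14C]-palmitate, with oxidation read as 14CO2 trapped on filters and counted by liquid scintillation after 3 to 8 h at 37 °C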
Experimental: (§1) Labeling medium to assay oxidation of fatty acids was composed of glucose-deficient DMEM containing 3.7 g/l NaHCO3, 25 mM HEPES-NaOH, 0.5% fatty acid-free bovine serum albumin (BSA), 0.1% ethanol, 0.5% DMSO (or test compounds dissolved in DMSO), 5 mM D-glucose, and 16 μM unlabeled palmitate plus 0.25 μM [U-^14C]palmitate (approx. 800 mCi/mmol). After the addition of labeling medium, the cell culture plates were sealed air tight with self adhesive Super Sealing Film (Life Systems Design, #02-2796-3001). Before sealing, twelve 1 cm^2 squares of filter paper (Schleicher & Schuell, #GB004) pretreated with 50 μl of highly basic tissue solubilizer solution NCSII (Amersham Pharmacia, #NNCS-502) were attached to the lower side of the sealing film. Upon sealing of the tissue culture plates, the filters were positioned in the center above each well, and served to capture the evolving ^14CO2 that was produced by the cells in each individual well. After an incubation between 3 to 8 hours at 37° C., the filters were removed from the sealing film and the captured ^14CO2 was quantitated by liquid scintillation counting with 2 ml of scintillation cocktail BCS-NA (Amersham Pharmacia, #NBCS204) in a Tri-Carb liquid scintillation counter (Canberra Packard).
(§2) Cultivation of the differentiating rat muscle cell line L6 for fatty acid oxidation assays was performed as follows. For routine passaging, L6 cells (ATCC) were grown in T75 flasks in 15 ml of MEM Alpha medium (Gibco BRL Life Technologies, #22571-038), containing 10% heat inactivated FBS and 1% antibiotic/antimycotic solution (Gibco BRL Life Technologies, #15240-062). Incubation was done at 37° C. in a humid atmosphere containing 5% CO2. The cells were passaged twice per week by trypsinization.
(§3) For fatty acid oxidation assays, each well of a 12-well tissue culture plate was seeded with 2 to 5×10^4 cells in 1 ml of MEM Alpha, 10% FBS, 1% antibiotic/antimycotic solution. After 3 days, medium was exchanged by 1 ml of the same, fresh medium. After 5 days, medium was exchanged again, this time by 1 ml of medium containing 2% FBS, 1% antibiotic/antimycotic solution. After 7 days, the cells were fully differentiated and formed large multinucleated myotubes. At this stage, the medium was replaced by 1 ml of glucose-deficient DMEM supplemented with 3.7 g/l NaHCO3 and 25 mM HEPES-NaOH followed by a starvation period of 2 to 6 hours at 37° C. […] The compounds were tested at three different concentrations (2, 0.2 and 0.02 μM) on differentiated L6 cells.

HepG2 cells = experiment: Fatty acid (palmitate) oxidation assay with human liver hepatoma cells HepG2; assay type: cell-based; settings: for Stimulation of palmitate / fatty acid oxidation (in words): HepG2
Experimental: For routine passaging, HepG2 cells (American Type Culture Collection, ATCC) were grown in T75 flasks (Falcon, #353136) in 15 ml of Dulbecco's modified Eagle medium (DMEM, Sigma, #D5796), containing 10% heat inactivated fetal bovine serum (FBS, Summit Biotechnology, #S-100-05) and 1% Penicillin/Streptomycin (Sigma, #P4333). […] The cells were passaged once per week by trypsinization and an additional change of medium was done after 3 to 4 days after passaging.

human ACCβ enzyme = target: T1, human ACCβ enzyme (Homo sapiens, UniProt O00763); experiment: Human ACCβ enzyme activity / inhibition assay (radiometric); assay type: biochemical; settings: for IC50: purified recombinant human ACCβ, saturating substrate concentrations, read-out: IC50 against purified ACCβ enzyme; for Effect on K0.5 of K-citrate / Effect on Vmax of the ACC enzyme reaction: titration of compound at 0.5, 1 and 2 times IC50
T1 construct: The cloning of the full length human muscle-type ACCβ cDNA and expression in HEK293 cells; made in house; host or cells: HEK293 cells (ATCC CRL-1573), plasmid pRF33D
T1 sequence (O00763 whole entry): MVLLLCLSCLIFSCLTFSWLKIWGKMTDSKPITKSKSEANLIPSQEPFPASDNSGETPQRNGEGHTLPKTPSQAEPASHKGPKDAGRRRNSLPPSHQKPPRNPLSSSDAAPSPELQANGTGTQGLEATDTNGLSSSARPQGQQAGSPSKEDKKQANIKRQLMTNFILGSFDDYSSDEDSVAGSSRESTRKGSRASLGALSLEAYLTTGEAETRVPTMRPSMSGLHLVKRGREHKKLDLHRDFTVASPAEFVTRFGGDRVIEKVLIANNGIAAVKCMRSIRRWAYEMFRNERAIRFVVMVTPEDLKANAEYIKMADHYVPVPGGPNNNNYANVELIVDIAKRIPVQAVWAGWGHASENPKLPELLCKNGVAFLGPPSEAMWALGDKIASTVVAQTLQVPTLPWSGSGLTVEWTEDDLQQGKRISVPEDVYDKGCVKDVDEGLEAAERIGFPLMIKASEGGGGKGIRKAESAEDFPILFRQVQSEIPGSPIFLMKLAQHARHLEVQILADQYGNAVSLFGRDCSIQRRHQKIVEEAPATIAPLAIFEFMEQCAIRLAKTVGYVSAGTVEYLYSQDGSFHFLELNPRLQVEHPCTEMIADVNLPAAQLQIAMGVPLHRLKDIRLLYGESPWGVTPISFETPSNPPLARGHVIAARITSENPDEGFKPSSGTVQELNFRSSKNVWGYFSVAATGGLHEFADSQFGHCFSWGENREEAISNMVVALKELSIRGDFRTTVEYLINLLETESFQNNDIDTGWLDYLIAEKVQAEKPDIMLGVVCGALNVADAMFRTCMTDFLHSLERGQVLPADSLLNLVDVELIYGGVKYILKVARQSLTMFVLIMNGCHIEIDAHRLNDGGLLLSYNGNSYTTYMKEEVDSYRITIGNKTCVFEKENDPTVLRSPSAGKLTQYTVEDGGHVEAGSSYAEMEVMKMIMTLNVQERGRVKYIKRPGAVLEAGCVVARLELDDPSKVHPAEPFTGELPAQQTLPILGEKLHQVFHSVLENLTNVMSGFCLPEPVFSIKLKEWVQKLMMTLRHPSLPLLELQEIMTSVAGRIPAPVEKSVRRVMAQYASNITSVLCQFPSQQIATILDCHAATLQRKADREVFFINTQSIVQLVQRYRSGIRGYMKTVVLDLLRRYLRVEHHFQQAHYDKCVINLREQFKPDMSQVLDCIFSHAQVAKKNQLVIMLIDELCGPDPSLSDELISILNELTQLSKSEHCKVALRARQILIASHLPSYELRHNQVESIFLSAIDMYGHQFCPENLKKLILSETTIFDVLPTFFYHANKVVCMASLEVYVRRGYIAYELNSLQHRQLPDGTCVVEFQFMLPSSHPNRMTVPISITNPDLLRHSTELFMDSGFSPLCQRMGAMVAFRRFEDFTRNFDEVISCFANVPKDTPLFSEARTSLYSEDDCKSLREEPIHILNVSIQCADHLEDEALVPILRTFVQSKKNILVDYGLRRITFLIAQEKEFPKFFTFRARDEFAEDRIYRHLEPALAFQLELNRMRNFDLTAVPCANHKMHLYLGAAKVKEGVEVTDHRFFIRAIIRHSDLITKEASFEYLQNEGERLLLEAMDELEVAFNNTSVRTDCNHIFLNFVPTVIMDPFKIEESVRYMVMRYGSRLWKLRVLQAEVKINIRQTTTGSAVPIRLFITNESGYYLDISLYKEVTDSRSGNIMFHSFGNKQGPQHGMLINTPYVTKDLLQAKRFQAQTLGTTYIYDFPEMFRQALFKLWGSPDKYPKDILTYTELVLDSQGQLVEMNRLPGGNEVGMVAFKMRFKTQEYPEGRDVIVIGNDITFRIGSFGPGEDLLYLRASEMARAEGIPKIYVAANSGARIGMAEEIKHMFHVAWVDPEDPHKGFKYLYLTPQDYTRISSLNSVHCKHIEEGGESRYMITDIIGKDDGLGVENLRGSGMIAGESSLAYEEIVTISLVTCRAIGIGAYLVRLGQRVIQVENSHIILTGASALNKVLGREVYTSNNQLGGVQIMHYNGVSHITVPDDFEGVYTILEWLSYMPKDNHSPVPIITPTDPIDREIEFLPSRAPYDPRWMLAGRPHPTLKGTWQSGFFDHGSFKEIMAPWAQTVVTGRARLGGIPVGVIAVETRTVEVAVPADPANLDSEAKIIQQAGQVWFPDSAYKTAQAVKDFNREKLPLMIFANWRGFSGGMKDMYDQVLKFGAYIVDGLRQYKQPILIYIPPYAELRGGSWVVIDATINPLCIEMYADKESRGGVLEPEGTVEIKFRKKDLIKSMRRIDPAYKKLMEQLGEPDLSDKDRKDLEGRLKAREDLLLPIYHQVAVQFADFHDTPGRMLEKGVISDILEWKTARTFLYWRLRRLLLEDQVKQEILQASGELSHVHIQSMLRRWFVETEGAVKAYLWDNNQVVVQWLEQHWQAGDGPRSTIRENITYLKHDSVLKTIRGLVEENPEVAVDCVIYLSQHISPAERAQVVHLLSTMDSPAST
Experimental: The cloning of the full length human muscle-type ACCβ cDNA and expression in HEK293 cells (ATCC, #CRL-1573) was performed as follows. The ACCβ cDNA was amplified by the polymerase chain reaction (PCR) and was cloned using standard recombinant DNA techniques. The PCR reaction was performed with the Expand Long Template PCR System (Roche Molecular Biochemicals, #1 681 8340) and 0.5 ng of cDNA from human skeletal muscle as template. The primers used for PCR amplification were designed on the basis of the published sequence of the human ACCβ cDNA isolated from a human liver cDNA library (Abul-Elheiga et al. J. Biol Chem. 272, 10669-10677, 1997). The sequence of the forward primer ACCB1 was 5′-[…]-3′; it includes a NheI restriction cleavage site for subcloning and a Kozak translation initiation consensus sequence preceding the ATG start codon. The sequence of the reverse primer ACCB8 was 5′-[…]-3′; it includes a stop codon and a XhoI restriction cleavage site for subcloning. The amplified DNA fragment of approximately 7.4 kb was cloned into a mammalian expression vector. The resulting plasmid isolates, pRF33A, B, C, D, and E were individually transfected in human embryonic kidney 293 cells (HEK293) using a standard lipid transfection method. Cell extracts of transfected cells were prepared in a lysis buffer containing 0.4 mg/ml digitonin and enzyme activity was determined using a radiometric ACC activity assay as described below. Plasmid pRF33D gave the highest activity and was chosen for large scale transfections of HEK293 cells and enzyme purification.
Since ACC enzyme activities in crude cell lysates were very low, enrichment of ACCβ enzyme expressed in HEK293 cells was achieved by a single anion exchange chromatography step. Cell lysates were run over a 5 ml Econo Pac High Q column (Bio-Rad, #732-0027). Bound proteins were eluted by a gradient of NaCl from 0 to 1 M in 50 mM Tris-HCl, pH 7.5, 1 mM DTT, 5% glycerol. Fractions containing high ACCβ enzyme activity were pooled and stored at −20° C.
Standard ACCβ enzyme assays, in a total volume of 100 μl, contained 50 mM HEPES-KOH, pH 7.5, 10 mM K-citrate, 10 mM MgSO4, 1 mM ATP, 0.1 mM DTT, 2% DMSO, 0.1 mg/ml fatty acid-free BSA, 0.2 mM acetyl-CoA, 2 mM KHCO3, 0.2 mM [^14C]NaHCO3 (50-60 mCi/mmol) and cell lysate or purified ACCβ enzyme. Reactions were incubated at 37° C. for 45 min. and stopped by the addition of 50 μl of 2 N HCl. Terminated reactions were incubated at 50° C. over night to evaporate non-incorporated [^14C]NaHCO3. [^14C]-labeled malonyl-CoA reaction product was quantitated by liquid scintillation counting after the addition of 20 μl of Microscint 20 (Canberra Packard, #6013621) on a TopCount NXT microplate scintillation counter (Canberra Packard).
Inhibition of ACCβ activity was determined at saturating substrate concentrations with two-fold serial dilutions of test compounds spanning a concentration range of at least two log units. IC50 values were calculated with the GraFit software (Erithacus Software Ltd.). Kinetic parameters (Km, Vmax and K0.5) were determined by varying one substrate (or allosteric effector) in a two-fold serial dilution over a concentration range of at least two log units while keeping all other substrates at constant saturating concentrations. Fitting to the Michaelis-Menten equation (for calculation of Km of substrates) and fitting to the Hill equation (for calculation of K0.5of the allosteric activator K-citrate) was done with the GraFit software. To determine the mode of action of Soraphens, determinations of Km for ATP and acetyl-CoA and of K0.5 for K-citrate were repeated in the absence and in the presence of the three different Soraphens at 0.5, 1 and 2 times their IC50 and the data were fitted to the equation for non-competitive inhibition with the GraFit software.

differentiated L6 cells [2] = system: differentiated L6 cells;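 also: differentiated rat L6 myotubes fed [14C]-palmitate, with oxidation read as 14CO2 trapped on filters and counted by liquid scintillation after 3 to 8 h at 37 °C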
Experimental: as §1, §2, §3

| Structure (SMILES) | Fold stimulation over palmitate oxidation rate in the absence of test compounds (HepG2 cells; HepG2, 25 μM) [fold] | Palmitate oxidation rate (HepG2 cells; HepG2, 25 μM) | IC50 (human ACCβ enzyme) [µM] | Effect on K0.5 of K-citrate (human ACCβ enzyme) | Effect on Vmax of the ACC enzyme reaction (human ACCβ enzyme) | Fold stimulation over palmitate oxidation rate in the absence of test compounds (HepG2 cells; HepG2, 10 μM) [fold] | Palmitate oxidation rate (HepG2 cells; HepG2, 10 μM) | Stimulation of palmitate / fatty acid oxidation (in words) (HepG2 cells) | other results |
| --- | --- | --- | --- | --- | --- | --- | --- | --- | --- |
| CCCCCCCCCCCCCCOc1ccc(C(=O)O)o1 [TOFA, 5-(Tetradecyloxy)-2-furoic acid, reference compound] | 2.1 | 8.1 +/− 0.7 pmol · h^−1 · well^−1 | – | – | – | – | – | – | Fold stimulation (differentiated L6 cells [1]; L6, Table 3, 0.25 μM): 1.1 fold; Palmitate oxidation rate (differentiated L6 cells [1]; L6, Table 3, 0.25 μM): 5.8 +/− 0.4 pmol · h^−1 · well^−1; Fold stimulation (differentiated L6 cells [1]; L6, Table 3, 2.5 μM): 1.5 fold; Palmitate oxidation rate (differentiated L6 cells [1]; L6, Table 3, 2.5 μM): 8.0 +/− 0.7 pmol · h^−1 · well^−1; Fold stimulation (differentiated L6 cells [1]; L6, Table 3, 25 μM): 1.3 fold; Palmitate oxidation rate (differentiated L6 cells [1]; L6, Table 3, 25 μM): 7.2 +/− 0.3 pmol · h^−1 · well^−1; Maximal stimulation of palmitate oxidation (differentiated L6 cells [1]; differentiated L6 cells, up to 25 μM): 1.5 fold |
| CO[C@H]1CC(O)CC[C@@H](c2ccccc2)OC(=O)[C@@H](C)C2(O)O[C@H]([C@@H](C)[C@H](O)[C@H]2OC)[C@@H](C)/C=C/[C@H]1O (stereo partly drawn) [Cpd (Ic), Soraphen B 2-α] | – | – | 1.75 | did not change | dose-dependent decrease | 1.6 | 6.1 +/− 0.4 pmol · h^−1 · well^−1 | – | Fold stimulation (differentiated L6 cells [1]; L6, Table 2, 0.02 μM): 0.9 fold; Palmitate oxidation rate (differentiated L6 cells [1]; L6, Table 2, 0.02 μM): 8.2 +/− 0.5 pmol · h^−1 · well^−1; Fold stimulation (differentiated L6 cells [1]; L6, Table 2, 0.2 μM): 1.0 fold; Palmitate oxidation rate (differentiated L6 cells [1]; L6, Table 2, 0.2 μM): 8.8 +/− 0.5 pmol · h^−1 · well^−1; Fold stimulation (differentiated L6 cells [1]; L6, Table 2, 2 μM): 1.1 fold; Palmitate oxidation rate (differentiated L6 cells [1]; L6, Table 2, 2 μM): 10.2 +/− 1.3 pmol · h^−1 · well^−1 |
| CC(Oc1ccc(Oc2ccc(Cl)cc2Cl)cc1)C(=O)O (stereo not shown) [Diclofop, 2-[p-(2,4-Dichlorophenoxy)phenoxy]propionic acid] | 0.8 | 3.1 +/− 1.3 pmol · h^−1 · well^−1 | – | – | – | – | – | did not stimulate | – |
| CCCC(=NOCC)C1=C(O)CC(C2CCCSC2)CC1=O (stereo not shown) [Cycloxidim, 2-(1-Ethoxyimino-butyl)-3-hydroxy-5-(tetrahydro-thiopyran-3-yl)-cyclohex-2-enone] | 0.9 | 3.5 +/− 0.2 pmol · h^−1 · well^−1 | – | – | – | – | – | did not stimulate | – |
| CC(Oc1ccc(Oc2ncc(C(F)(F)F)cc2Cl)cc1)C(=O)O (stereo not shown) [Haloxyfop, 2-[4-(3-chloro-5-trifluormethyl-2-pyridinyloxy)phenoxy] propionic acid] | 1.0 | 3.6 +/− 0.4 pmol · h^−1 · well^−1 | – | – | – | – | – | did not stimulate | – |
| CO[C@@H]1[C@@H](O)[C@H](C)[C@H]2OC1(O)[C@H](C)C(=O)O[C@H](c1ccccc1)CCCC[C@H](O)[C@H](O)/C=C/[C@@H]2C [Cpd (Ib), Soraphen A 4-α] | – | – | 0.2 | did not change | dose-dependent decrease | 2.8 | 10.8 +/− 0.4 pmol · h^−1 · well^−1 | – | Fold stimulation (differentiated L6 cells [2]; L6, Table 2, 0.02 μM): 1.0 fold; Palmitate oxidation rate (differentiated L6 cells [2]; L6, Table 2, 0.02 μM): 8.8 +/− 0.3 pmol · h^−1 · well^−1; Fold stimulation (differentiated L6 cells [2]; L6, Table 2, 0.2 μM): 1.1 fold; Palmitate oxidation rate (differentiated L6 cells [2]; L6, Table 2, 0.2 μM): 10.0 +/− 1.4 pmol · h^−1 · well^−1; Fold stimulation (differentiated L6 cells [2]; L6, Table 2, 2 μM): 1.5 fold; Palmitate oxidation rate (differentiated L6 cells [2]; L6, Table 2, 2 μM): 13.5 +/− 1.4 pmol · h^−1 · well^−1 |

From patent US20030144345A1, “Treatment of metabolic diseases with soraphen derivatives” (priority 2001, published 2003)
